According to ChEMBL document CHEMBL4420076, “Amylin and calcitonin receptor agonist” (2017):
Numbered stars: 1 amine (or outer) side, 2 acyl side, 3 side chain; on linkers, the order of the positions; unused ones are H or OH. Peptide text beside a SMILES is read from it. * marks the point of attachment. C20 diacid = O=C(O)CCCCCCCCCCCCCCCCCCC(=O)*; γGlu = O=C(O)[C@H](CCC(=O)[*:2])N[*:1]

How the values were obtained:
[1] = Solubility in 100 mM bistrispropane buffer at pH 7.0 incubated for 18 hrs by UPLC analysis; assay type: physicochemical
[2] = Stability in pH 7.5 buffer assessed as lag time for fibril formation at 1 uM by Thioflavin T based fluorescence assay; assay type: physicochemical; settings: pH 7.5, 1 µM
[3] = biological target: T1, Amylin receptor AMY3; CALCR/RAMP3 (Homo sapiens, UniProt O60896+P30988); test: Agonist activity at human amylin receptor expressed in BHK570 cells co-expressing RAMP3 assessed as increase in intracellular cAMP concentration incubated for 3 hrs in presence of 10% FBS by CRE luciferase reporter gene assay; assay type: functional, cell-based
T1 sequence (P30988 whole entry): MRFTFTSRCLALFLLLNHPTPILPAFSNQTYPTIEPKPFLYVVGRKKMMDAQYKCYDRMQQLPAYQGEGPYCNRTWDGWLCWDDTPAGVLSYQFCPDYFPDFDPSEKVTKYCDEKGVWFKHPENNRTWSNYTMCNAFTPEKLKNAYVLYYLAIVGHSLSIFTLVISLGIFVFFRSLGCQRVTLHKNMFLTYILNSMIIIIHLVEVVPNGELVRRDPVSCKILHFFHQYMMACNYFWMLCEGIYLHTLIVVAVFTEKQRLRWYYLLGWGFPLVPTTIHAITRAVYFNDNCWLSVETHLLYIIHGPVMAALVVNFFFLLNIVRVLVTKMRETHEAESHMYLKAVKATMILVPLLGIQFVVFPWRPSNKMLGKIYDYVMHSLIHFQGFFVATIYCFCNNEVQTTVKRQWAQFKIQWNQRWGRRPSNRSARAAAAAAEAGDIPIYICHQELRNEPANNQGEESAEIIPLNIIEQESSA
T1 sequence (O60896 whole entry): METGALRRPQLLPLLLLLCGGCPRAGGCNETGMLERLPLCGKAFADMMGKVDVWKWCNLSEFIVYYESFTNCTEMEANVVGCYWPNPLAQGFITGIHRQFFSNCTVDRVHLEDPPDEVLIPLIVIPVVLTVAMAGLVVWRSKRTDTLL

[4] = Solubility in 100 mM bistrispropane buffer at pH 7.5 incubated for 18 hrs by UPLC analysis; assay type: physicochemical
Rattus norvegicus [5] = test: Reduction in food intake in Sprague-Dawley rat at 3 nmol/kg measured 24 to 48 hrs post dose relative to control; assay type: functional; set-up: scale not given: the % may be the effect or the level left
[6] = Solubility in 100 mM bistrispropane buffer at pH 6.0 incubated for 18 hrs by UPLC analysis; assay type: physicochemical
[7] = Stability in pH 7.5 buffer assessed as compound recovery at 1 uM by Thioflavin T based fluorescence assay; assay type: physicochemical; settings: read-out: Drug recovery
[8] = Solubility in 100 mM glycylglycine buffer at pH 4.0 incubated for 18 hrs by UPLC analysis; assay type: physicochemical
Calcitonin receptor [9] = biological target: T2, Calcitonin receptor (Homo sapiens, UniProt P30988); test: Agonist activity at human calcitonin receptor expressed in BHK570 cells assessed as increase in intracellular cAMP concentration incubated for 3 hrs in presence of 10% FBS by CRE luciferase reporter gene assay; assay type: functional, cell-based
T2 sequence (P30988 whole entry): T1 sequence (P30988 whole entry)

[10] = biological target: T1, Amylin receptor AMY3; CALCR/RAMP3; test: Agonist activity at human amylin receptor expressed in BHK570 cells co-expressing RAMP3 assessed as increase in intracellular cAMP concentration incubated for 3 hrs in absence of albumin by CRE luciferase reporter gene assay; assay type: functional, cell-based
Rattus norvegicus [11] = test: Reduction in food intake in Sprague-Dawley rat at 3 nmol/kg measured 0 to 24 hrs post dose relative to control; assay type: functional; set-up: scale not given: the % may be the effect or the level left
[12] = Solubility in 100 mM glycylglycine buffer at pH 3.0 incubated for 18 hrs by UPLC analysis; assay type: physicochemical
[13] = Solubility in 100 mM bistrispropane buffer at pH 6.5 incubated for 18 hrs by UPLC analysis; assay type: physicochemical
Calcitonin receptor [14] = biological target: T2, Calcitonin receptor; test: Agonist activity at human calcitonin receptor expressed in BHK570 cells assessed as increase in intracellular cAMP concentration incubated for 3 hrs in absence of albumin by CRE luciferase reporter gene assay; assay type: functional, cell-based
[15] = Solubility in 100 mM bistrispropane buffer at pH 8.0 incubated for 18 hrs by UPLC analysis; assay type: physicochemical
[16] = Solubility in 100 mM glycylglycine buffer at pH 5.0 incubated for 18 hrs by UPLC analysis; assay type: physicochemical

solubility at 18 h [1] | Time [2] | EC50 [3] | solubility at 18 h [4] | solubility at 18 h [6] | remaining at 1 µM [7] | solubility at 18 h [8] | EC50 (Calcitonin receptor [9]) | EC50 [10] | solubility at 18 h [12] | solubility at 18 h [13] | EC50 (Calcitonin receptor [14]) | solubility at 18 h [15] | solubility at 18 h [16] | Compound | Activity (Rattus norvegicus [5]) | Activity (Rattus norvegicus [11])
≥ 200 µM | > 45 h | 0.093 nM | ≥ 200 µM | ≥ 200 µM | 100% | ≥ 200 µM | 0.071 nM | 0.032 nM | ≥ 200 µM | ≥ 200 µM | 0.029 nM | ≥ 200 µM | – | CC(C)C[C@H](NC(=O)[C@H](C)NC(=O)[C@H](C)NC(=O)[C@@H](NC(=O)[C@H](CO)NC(=O)[C@H](CC(C)C)NC(=O)[C@H](CCC(=O)O)NC(=O)[C@H](CO)NC(=O)[C@H](C)NC(=O)CC[C@H](NC(=O)CCCCCCCCCCCCCCCCCCC(=O)O)C(=O)O)[C@@H](C)O)C(=O)NCC(=O)N[C@@H](CCCNC(=N)N)C(=O)N[C@@H](CC(C)C)C(=O)N[C@@H](CO)C(=O)N[C@@H](C)C(=O)N[C@@H](CCC(=O)O)C(=O)N[C@@H](CC(C)C)C(=O)N[C@@H](Cc1cnc[nH]1)C(=O)N[C@@H](CCC(=O)O)C(=O)N[C@@H](CC(C)C)C(=O)N[C@@H](C)C(=O)N[C@H](C(=O)N[C@@H](Cc1ccc(O)cc1)C(=O)N1CCC[C@H]1C(=O)N[C@@H](CCCNC(=N)N)C(=O)N[C@H](C(=O)N[C@@H](CCC(=O)O)C(=O)N[C@H](C(=O)NCC(=O)N[C@@H](CO)C(=O)NCC(=O)N[C@@H](CO)C(=O)N[C@@H](Cc1ccc(O)cc1)C(N)=O)[C@@H](C)O)[C@@H](C)O)[C@@H](C)O ({C20 diacid-γGlu}-ASELSTAALGRLSAELHELATYPRTETGSGSY-NH2) | 56% | 49%
≥ 200 µM | > 45 h | 0.152 nM | ≥ 200 µM | ≥ 200 µM | 100% | – | 0.072 nM | – | ≥ 200 µM | ≥ 200 µM | 0.057 nM | ≥ 200 µM | ≥ 200 µM | CC(C)C[C@H](NC(=O)CNC(=O)[C@H](CO)NC(=O)[C@H](C)NC(=O)CC[C@H](NC(=O)CCCCCCCCCCCCCCCCCCC(=O)O)C(=O)O)C(=O)N[C@@H](CO)C(=O)N[C@H](C(=O)N[C@@H](C)C(=O)N[C@H](C(=O)N[C@@H](CC(C)C)C(=O)NCC(=O)N[C@@H](CCCNC(=N)N)C(=O)N[C@@H](CC(C)C)C(=O)N[C@@H](CO)C(=O)N[C@@H](CCC(N)=O)C(=O)N[C@@H](CCC(=O)O)C(=O)N[C@@H](CC(C)C)C(=O)N[C@@H](Cc1cnc[nH]1)C(=O)N[C@@H](CCC(=O)O)C(=O)N[C@@H](CC(C)C)C(=O)N[C@@H](CCC(N)=O)C(=O)N[C@H](C(=O)N[C@@H](Cc1ccc(O)cc1)C(=O)N1CCC[C@H]1C(=O)N1CCC[C@H]1C(=O)N[C@H](C(=O)N[C@@H](CCC(=O)O)C(=O)N[C@H](C(=O)NCC(=O)N[C@@H](CO)C(=O)N[C@@H](CCC(N)=O)C(=O)N[C@H](C(=O)N[C@@H](Cc1ccc(O)cc1)C(N)=O)[C@@H](C)O)[C@@H](C)O)[C@@H](C)O)[C@@H](C)O)C(C)C)[C@@H](C)O ({C20 diacid-γGlu}-ASGLSTAVLGRLSQELHELQTYPPTETGSQTY-NH2) | 5% | 9%
